According to patent US20200239398A1, “METHYLENE-CYCLOALKYLACETATE DERIVATIVES AND THEIR USE IN TREATMENT OF NEUROTROPIC CONDITIONS” (Yissum Research Development Company of The Hebrew …, priority 2018, published 2020):
Where “and” joins values, the source holds several entries; their conditions need not be identical. Equal entries are not always repeated. Where two headings read alike, the source gives them in different places.

Legend:
male C57BL/6 mice = experiment: Sensory motor/neurological-neurobehavioral tests (mNSS); format: in vivo; settings: 250 mg/kg iv; for Angle of increase / Beam balance (score) / Hind limb (placing test score) / mNSS / Foot fault / Self-suspension time: individual animal; for Foot fault / Self-suspension time: listed as HU-MCA-13, 250 mg/kg
Procedure: This pilot study was conducted to obtain acute information of the dose toxicity of HU-MCA-13 (Compound 13 in Scheme 1) in male mice. Male C57BL/6 mice, were injected intravenously with 0.2 ml of HU-MCA-13 in a dose of 250 mg/kg. Mice were monitored for 4 consecutive weeks for autonomic and neurotoxicity symptoms. The mortality and changes on body weight, clinical signs, gross observation, were monitored up to 30 days after treatment. No mortality was found at this high dose of 250 mg/kg. […] The mice were examined once a week for autonomic symptoms by measuring salivation, urinary delivery, pupillary constriction, heart rate, blood pressure, and hair contraction. […] Occurrences of either flaccid or spastic paralysis of the legs were not observed. […] Furthermore, no mice sudden deaths occurred within 24 hours after the injection or during the 4 weeks of observation. […] Sensory motor tests were scored individually and according to the modified neurologic function severity score (mNSS). The data from each individual test and the total score calculated from individual tests that make up the mNSS were measured. The following assays were used: a. beam balance test—mice were placed on a 1-inch wide beam for 60 seconds. A normal response is balance with steady posture for 60 seconds (a score of 0). Deficits are scored if the rat: grasps the side of the beam (a score of 1), hugs the beam and one limb falls down from the beam (a score of 2), hugs the beam and two limbs fall off the beam (a score of 3), attempts to balance on the beam, but falls off from 60 seconds (a score of 4), attempts to balance on the beam but falls off from […], or falls off with no attempt to balance or hang on the beam in <20 seconds (a score of 6); b. foot fault test—forelimb movement dysfunction, while walking on elevated metal grids, was monitored. The animal was placed on horizontal grids (85.5×26.5×20) cm with a glass enclosure for observation. With each weight bearing step, the forelimb can fall or slip between the metal support bars, an event recorded as a foot fault. The total number of forelimb steps and the total number of foot faults were recorded. The percentage of forelimb foot faults to the total steps that occurred within 2 minutes marks the test results; c. hind limb placing test—This test monitors reposition of hind limbs placed down and away from the table edge. The ability to retrieve and place the hind limbs back onto the table was scored. Immediate and complete limb retrieval was scored 0, delayed (>2 seconds) limb retrieval and/or interspersed flailing was scored 1, and no limb retrieval was scored 2; d. Increasing platform angle to slide test—This test monitors the strength and stability of resistance to slide down an inclined platform. It deploys a clean wooden board (60 cm by 40 cm) positioned horizontally. Mice were placed on the board with head facing up the increasing incline. The board then swings to increase the degree of inclination the rat experiences until slipping down the board feet first. The degree of the angle at which the rat relinquishes their grip/stance on the board (slips down) constitute the test results; e. the forelimb whole body suspension test—The test measures grip strength by duration of suspension by forepaws. The rat is suspended on a metal bar (diameter 5 mm) which it tightly holds onto by its forelimbs. The time (seconds) during which each rat could sustain its body weight while holding onto the bar is recorded. The mice drop from the bar onto soft material with no harm. The test was repeated three times and a mean result per rat was used as the score. Cumulatively these sensory motor/neurological findings indicate acute tolerability of 250 mg/kg HU-MCA-13 iv injection in Male C57BL/6 mice.

[1] = biological target: Adenosine Receptor A2A (ADORA2A) (Homo sapiens, UniProt P29274); experiment: SAFETYscan ADORA2A Calcium Flux; format: cell-based; settings: 10 μM HU-MCA-13, read-out: Maximal Response
Sequence of Adenosine Receptor A2A (ADORA2A) (P29274 whole entry): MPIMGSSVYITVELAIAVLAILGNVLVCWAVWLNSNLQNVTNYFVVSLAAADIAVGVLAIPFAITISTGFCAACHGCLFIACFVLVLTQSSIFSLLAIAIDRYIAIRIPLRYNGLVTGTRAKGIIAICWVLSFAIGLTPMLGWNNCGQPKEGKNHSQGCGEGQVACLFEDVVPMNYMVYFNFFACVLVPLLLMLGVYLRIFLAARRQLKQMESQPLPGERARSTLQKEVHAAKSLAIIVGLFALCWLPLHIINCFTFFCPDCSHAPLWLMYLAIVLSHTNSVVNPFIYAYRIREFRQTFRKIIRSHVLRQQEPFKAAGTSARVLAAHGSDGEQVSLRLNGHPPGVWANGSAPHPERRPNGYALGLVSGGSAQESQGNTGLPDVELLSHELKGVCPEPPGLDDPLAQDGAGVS

[2] = biological target: Adrenergic Receptor β1 (ADRB1) (Homo sapiens, UniProt P08588); experiment: SAFETYscan ADRB1 cAMP; format: cell-based; settings: 10 μM HU-MCA-13, read-out: Maximal Response
Sequence of Adrenergic Receptor β1 (ADRB1) (P08588 whole entry): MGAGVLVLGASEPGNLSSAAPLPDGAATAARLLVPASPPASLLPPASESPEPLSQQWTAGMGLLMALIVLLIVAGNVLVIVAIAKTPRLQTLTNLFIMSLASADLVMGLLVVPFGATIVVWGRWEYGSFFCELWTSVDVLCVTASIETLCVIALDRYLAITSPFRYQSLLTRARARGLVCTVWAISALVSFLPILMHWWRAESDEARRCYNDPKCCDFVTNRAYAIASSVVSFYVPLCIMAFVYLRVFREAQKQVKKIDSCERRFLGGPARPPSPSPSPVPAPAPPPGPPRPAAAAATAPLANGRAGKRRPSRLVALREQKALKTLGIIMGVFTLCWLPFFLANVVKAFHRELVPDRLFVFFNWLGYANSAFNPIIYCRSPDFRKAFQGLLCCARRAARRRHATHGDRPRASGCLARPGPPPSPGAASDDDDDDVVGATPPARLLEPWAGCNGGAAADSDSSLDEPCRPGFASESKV

[3] = biological target: Arginine Vasopressin Receptor 1A (AVPR1A) (Homo sapiens, UniProt P37288); experiment: SAFETYscan AVPR1A Calcium Flux; format: cell-based; settings: 10 μM HU-MCA-13, read-out: Maximal Response
Sequence of Arginine Vasopressin Receptor 1A (AVPR1A) (P37288 whole entry): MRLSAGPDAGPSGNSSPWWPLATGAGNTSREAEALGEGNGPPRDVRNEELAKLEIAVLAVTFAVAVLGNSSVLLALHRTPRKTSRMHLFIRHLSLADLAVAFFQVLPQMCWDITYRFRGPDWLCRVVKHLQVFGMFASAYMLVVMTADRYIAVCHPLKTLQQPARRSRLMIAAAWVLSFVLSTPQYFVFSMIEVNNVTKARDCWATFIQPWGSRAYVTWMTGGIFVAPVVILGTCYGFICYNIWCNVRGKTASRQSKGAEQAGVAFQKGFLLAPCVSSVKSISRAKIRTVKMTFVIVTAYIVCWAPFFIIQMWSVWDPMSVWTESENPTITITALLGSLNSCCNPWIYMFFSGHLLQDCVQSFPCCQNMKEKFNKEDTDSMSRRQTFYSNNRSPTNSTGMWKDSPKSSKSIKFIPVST

[4] = biological target: Cannabinoid Receptor 2 (CNR2) (Homo sapiens, UniProt P34972); experiment: SAFETYscan CNR2 cAMP; format: cell-based; settings: 10 μM HU-MCA-13; for Emax: read-out: Maximal Response
Sequence of Cannabinoid Receptor 2 (CNR2) (P34972 whole entry): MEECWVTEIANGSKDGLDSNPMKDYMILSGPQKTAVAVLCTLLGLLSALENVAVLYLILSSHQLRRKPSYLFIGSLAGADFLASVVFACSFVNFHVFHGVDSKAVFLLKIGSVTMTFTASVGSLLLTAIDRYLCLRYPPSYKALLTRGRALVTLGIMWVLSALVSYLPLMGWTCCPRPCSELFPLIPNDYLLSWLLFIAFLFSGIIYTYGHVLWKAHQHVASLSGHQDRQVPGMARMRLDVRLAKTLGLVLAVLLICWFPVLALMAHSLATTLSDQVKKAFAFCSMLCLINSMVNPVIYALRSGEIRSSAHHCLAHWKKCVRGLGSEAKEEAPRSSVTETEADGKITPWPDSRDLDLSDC

[5] = biological target: 5-Hydroxytryptamine (Serotonin) Receptor 2A (HTR2A) (Homo sapiens, UniProt P28223); experiment: SAFETYscan HTR2A Calcium Flux; format: cell-based; settings: 10 μM HU-MCA-13, read-out: Maximal Response
[6] = biological target: Opioid Receptor Kappa 1 (OPRK1) (Homo sapiens, UniProt P41145); experiment: SAFETYscan OPRK1 cAMP; format: cell-based; settings: 10 μM HU-MCA-13, read-out: Maximal Response
Sequence of Opioid Receptor Kappa 1 (OPRK1) (P41145 whole entry): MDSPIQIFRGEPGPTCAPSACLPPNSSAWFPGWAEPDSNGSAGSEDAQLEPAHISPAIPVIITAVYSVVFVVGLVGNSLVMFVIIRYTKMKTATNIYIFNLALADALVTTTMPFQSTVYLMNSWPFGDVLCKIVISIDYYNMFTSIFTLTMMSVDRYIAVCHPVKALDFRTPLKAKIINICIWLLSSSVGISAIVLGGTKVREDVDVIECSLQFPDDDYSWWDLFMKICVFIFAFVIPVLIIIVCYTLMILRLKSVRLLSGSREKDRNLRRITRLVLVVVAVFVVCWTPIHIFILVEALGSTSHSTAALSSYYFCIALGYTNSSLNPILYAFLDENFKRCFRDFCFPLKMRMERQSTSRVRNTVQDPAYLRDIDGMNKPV

hERG (Kv11.1) = biological target: T1, hERG (Kv11.1) (Homo sapiens, UniProt Q12809); experiment: in vitro; format: cell-based; settings: Blocker mode, 10 μM HU-MCA-13, read-out: Maximal Response
T1 construct: DiscoverX (SAFETYscan contract panel)

[7] = biological target: T2, Nicotinic acetylcholine Receptor-alpha-4 beta-2 (nAChR (a4/b2)) (Homo sapiens, UniProt P17787+P43681); experiment: cell-based; format: cell-based; settings: 10 μM HU-MCA-13, read-out: Maximal Response
T2 construct: DiscoverX (SAFETYscan contract panel)
T2 sequence (P43681 29-627 limits assumed): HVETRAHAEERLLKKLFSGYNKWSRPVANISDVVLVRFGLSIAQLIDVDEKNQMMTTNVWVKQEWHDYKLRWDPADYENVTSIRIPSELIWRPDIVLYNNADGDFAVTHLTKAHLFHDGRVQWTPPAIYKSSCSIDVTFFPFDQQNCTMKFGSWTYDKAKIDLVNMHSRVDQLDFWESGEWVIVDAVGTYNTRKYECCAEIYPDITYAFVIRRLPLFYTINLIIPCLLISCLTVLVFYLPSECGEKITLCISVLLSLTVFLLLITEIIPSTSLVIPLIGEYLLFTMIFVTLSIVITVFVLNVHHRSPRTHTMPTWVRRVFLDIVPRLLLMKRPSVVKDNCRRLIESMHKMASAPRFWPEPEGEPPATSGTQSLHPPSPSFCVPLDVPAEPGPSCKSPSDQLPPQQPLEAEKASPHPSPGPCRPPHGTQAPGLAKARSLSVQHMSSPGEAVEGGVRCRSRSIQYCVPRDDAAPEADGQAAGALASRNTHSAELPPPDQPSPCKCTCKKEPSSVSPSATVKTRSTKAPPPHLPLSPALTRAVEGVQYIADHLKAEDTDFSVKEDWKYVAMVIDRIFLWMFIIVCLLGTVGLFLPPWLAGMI
T2 sequence (P17787 26-502): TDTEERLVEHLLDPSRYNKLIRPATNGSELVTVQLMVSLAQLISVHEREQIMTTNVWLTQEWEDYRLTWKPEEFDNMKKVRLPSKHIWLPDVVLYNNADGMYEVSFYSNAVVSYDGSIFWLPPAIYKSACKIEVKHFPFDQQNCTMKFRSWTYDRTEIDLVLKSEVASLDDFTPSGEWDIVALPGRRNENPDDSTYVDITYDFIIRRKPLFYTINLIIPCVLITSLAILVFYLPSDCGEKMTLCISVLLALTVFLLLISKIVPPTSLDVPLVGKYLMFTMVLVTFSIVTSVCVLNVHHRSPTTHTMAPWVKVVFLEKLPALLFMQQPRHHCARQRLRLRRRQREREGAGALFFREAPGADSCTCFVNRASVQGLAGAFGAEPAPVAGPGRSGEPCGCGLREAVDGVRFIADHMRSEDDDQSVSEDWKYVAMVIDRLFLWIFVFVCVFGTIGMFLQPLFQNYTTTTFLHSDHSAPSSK

[8] = biological target: T3, A tetrodotoxin-resistant voltage-gated sodium channel (NAVI1.5) (Homo sapiens, UniProt Q14524); experiment: cell-based; settings: read-out: Maximal Response
T3 construct: DiscoverX (SAFETYscan contract panel)

[9] = biological target: T4, N-methyl-D-aspartate (NMDA) Glutamate Receptor 1A/2B (NMDAR (1A/2B)) (Homo sapiens, UniProt Q05586+Q13224); experiment: SAFETYscan NMDAR (1A/2B) Ion channel; format: cell-based; settings: Blocker mode; 10 μM HU-MCA-13; read-out: Maximal Response
T4 construct: DiscoverX (SAFETYscan contract panel)

[10] = biological target: T5, Nuclear Hormone Glucocorticoid Receptor (GR) (Homo sapiens, UniProt P04150); experiment: SAFETYscan GR Nuclear Hormone Receptor Translocation; format: cell-based; settings: 10 μM HU-MCA-13, read-out: Maximal Response
T5 construct: DiscoverX (SAFETYscan contract panel)
T5 sequence (P04150 whole entry): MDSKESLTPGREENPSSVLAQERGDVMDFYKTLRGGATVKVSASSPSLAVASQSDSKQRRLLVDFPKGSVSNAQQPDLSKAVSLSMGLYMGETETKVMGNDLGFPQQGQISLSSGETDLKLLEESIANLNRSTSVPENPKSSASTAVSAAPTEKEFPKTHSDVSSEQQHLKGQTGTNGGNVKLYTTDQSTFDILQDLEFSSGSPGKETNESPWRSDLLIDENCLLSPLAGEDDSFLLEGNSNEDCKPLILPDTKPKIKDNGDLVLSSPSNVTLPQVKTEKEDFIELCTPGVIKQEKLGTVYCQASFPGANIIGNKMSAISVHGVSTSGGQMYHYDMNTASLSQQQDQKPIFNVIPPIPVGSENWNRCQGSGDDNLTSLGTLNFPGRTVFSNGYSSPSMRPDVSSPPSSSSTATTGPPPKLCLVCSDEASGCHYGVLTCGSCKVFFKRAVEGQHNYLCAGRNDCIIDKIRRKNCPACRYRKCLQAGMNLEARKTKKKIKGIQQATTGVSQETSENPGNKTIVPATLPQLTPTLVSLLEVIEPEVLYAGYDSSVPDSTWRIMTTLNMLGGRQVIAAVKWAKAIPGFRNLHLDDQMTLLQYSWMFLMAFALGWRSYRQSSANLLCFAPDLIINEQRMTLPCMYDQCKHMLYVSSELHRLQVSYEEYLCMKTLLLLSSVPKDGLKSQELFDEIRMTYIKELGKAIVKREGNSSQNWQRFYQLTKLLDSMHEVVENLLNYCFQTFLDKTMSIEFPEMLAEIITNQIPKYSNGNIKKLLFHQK

[11] = biological target: T6, Dopamine transporter (DAT) (Homo sapiens, UniProt Q01959); experiment: SAFETYscan DAT Transporter; format: cell-based; settings: Blocker mode; 10 μM HU-MCA-13; read-out: Maximal Response
T6 construct: DiscoverX (SAFETYscan contract panel)
T6 sequence (Q01959 whole entry): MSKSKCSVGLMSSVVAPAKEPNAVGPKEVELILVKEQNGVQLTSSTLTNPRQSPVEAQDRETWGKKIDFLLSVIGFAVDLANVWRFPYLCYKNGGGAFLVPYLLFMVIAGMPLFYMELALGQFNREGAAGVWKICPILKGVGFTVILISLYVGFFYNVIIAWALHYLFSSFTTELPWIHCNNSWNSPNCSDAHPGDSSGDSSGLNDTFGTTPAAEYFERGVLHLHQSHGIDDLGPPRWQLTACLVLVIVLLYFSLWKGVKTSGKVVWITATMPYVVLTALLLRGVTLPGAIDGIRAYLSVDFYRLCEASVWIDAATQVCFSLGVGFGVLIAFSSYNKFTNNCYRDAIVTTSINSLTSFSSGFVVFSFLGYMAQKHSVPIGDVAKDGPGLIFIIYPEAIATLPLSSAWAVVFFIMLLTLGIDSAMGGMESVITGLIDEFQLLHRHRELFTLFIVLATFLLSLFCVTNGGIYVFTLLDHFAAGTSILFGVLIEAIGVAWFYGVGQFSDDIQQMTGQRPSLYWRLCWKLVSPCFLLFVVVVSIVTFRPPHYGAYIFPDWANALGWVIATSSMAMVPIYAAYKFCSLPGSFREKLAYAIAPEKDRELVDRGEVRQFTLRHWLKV

`C=CCC1CCC[C@@H](CCC(=O)O)C1=C` (stereo partly shown) [Compound 13] was tested, and the sensory motor/neurological performance (male C57BL/6 mice; weekly routine motor tests) was “no neurological losses were observed”, the Angle of increase (male C57BL/6 mice; Day 0) was 35 degrees and the “Beam balance (score)” value (male C57BL/6 mice; Day 0) was 0. The “Hind limb (placing test score)” value (male C57BL/6 mice; Day 0) was 0, the mNSS (male C57BL/6 mice; Day 0) was 0 and the Foot fault (male C57BL/6 mice; Day 0) was 0/34 and 0/41 and 0/38 and 1/48. The Self-suspension time (male C57BL/6 mice; Day 0) was 8 seconds and 10 seconds (2×) and 9 seconds, the Angle of increase (male C57BL/6 mice; Day 1) was 35 degrees and the “Beam balance (score)” value (male C57BL/6 mice; Day 1) was 0. For the same compound, the “Hind limb (placing test score)” value (male C57BL/6 mice; Day 1) was 0, the mNSS (male C57BL/6 mice; Day 1) was 0 and the Foot fault (male C57BL/6 mice; Day 1) was 0/20 and 0/15 and 0/34 and 0/14. The Self-suspension time (male C57BL/6 mice; Day 1) was 14 seconds and 12 seconds (2×) and 15 seconds, the Angle of increase (male C57BL/6 mice; Day 5) was 35 degrees and the “Beam balance (score)” value (male C57BL/6 mice; Day 5) was 0. The “Hind limb (placing test score)” value (male C57BL/6 mice; Day 5) was 0, the mNSS (male C57BL/6 mice; Day 5) was 0 and the Foot fault (male C57BL/6 mice; Day 5) was 2/50 and 1/47 and 0/48 and 0/36. For the same compound, the Self-suspension time (male C57BL/6 mice; Day 5) was 13 seconds (2×) and 15 seconds and 14 seconds, the Emax ([1]; Agonist mode) was 0% and the Emax ([1]; Antagonist mode) was 4.09%. It also gave an Emax ([2]; Agonist mode) of 1.92%, an Emax ([2]; Antagonist mode) of 9.29% and an Emax ([3]; Agonist mode) of 0.29%. The Emax ([3]; Antagonist mode) was 0%, the “Maximal Response” value ([4]; Agonist mode) was 49.59% and the Emax ([4]; Agonist mode) was 49.6%. The Emax ([4]; Antagonist mode) was 4.11%, the Emax ([5]; Agonist mode) was 1.13% and the Emax ([5]; Antagonist mode) was 0%. The Emax ([6]; Agonist mode) was 7.89%, the Emax ([6]; Antagonist mode) was 0% and the Emax at 10 μM (hERG (Kv11.1)) was 0%. The Emax ([7]; Blocker mode) was 5.95%, the Emax ([7]; Opener mode) was 0% and the Emax [8] was 0%. For the same compound, the Emax [9] was 0%, the Emax ([10]; Agonist mode) was 0% and the Emax ([10]; Antagonist mode) was 2.28%. It also gave an Emax [11] of 0%.
